Measured values: US20050107616A1, “Alpha-ketoamide derivatives as cathepsin k inhibitors” (priority 2001, published 2005)
pKi: −log10 of the molar value. Read-outs that look alike come from different tables or passages of the source.

Assays:
human cathepsin K = biological target: T1, human cathepsin K (Homo sapiens, UniProt P43235); assay: Cathepsin K inhibition assay, fluorogenic substrate Cbz-Phe-Arg-AMC, progress curve method; format: biochemical; conditions: human recombinant enzyme, pH 5.5, 30° C., 10 μM substrate, read-out: hCat K Ki
T1 construct: The proform of cathepsin K was converted to mature cathepsin K by brief exposure to pH 4; made in house; host or cells: baculovirus; Trichoplusia ni High Five cells (virus raised in Sf-9)
T1 sequence (P43235 115-329): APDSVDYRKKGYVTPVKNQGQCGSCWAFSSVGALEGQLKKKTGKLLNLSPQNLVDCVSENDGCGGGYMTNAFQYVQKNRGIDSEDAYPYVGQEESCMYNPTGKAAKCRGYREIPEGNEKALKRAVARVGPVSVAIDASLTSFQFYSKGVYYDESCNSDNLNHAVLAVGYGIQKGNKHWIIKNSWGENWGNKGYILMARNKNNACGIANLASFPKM
In short: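 Recombinant human cathepsin K from insect cells, made mature by pH 4/L-cysteine activation, was assayed with 10 μM Cbz-Phe-Arg-AMC in 10% DMSO at 30° C. […]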

human cathepsin H = human cathepsin H (Homo sapiens, UniProt P09668); assay: Cathepsin H inhibition assay, substrate L-Arg-β-naphthalamide; format: biochemical; conditions: Table 2; enzyme from human liver tissue, pH 5.5, 30° C.; read-out: hCat H Ki
Chain of human cathepsin H (P09668 116-335 limits assumed, other chains not shown): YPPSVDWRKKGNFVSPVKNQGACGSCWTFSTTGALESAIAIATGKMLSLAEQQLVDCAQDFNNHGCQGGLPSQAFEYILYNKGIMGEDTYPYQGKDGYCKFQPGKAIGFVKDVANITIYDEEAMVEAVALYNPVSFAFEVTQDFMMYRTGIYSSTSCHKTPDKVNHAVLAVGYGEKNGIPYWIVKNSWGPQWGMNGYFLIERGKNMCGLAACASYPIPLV
Method: All assays for cathepsin K were carried out with human and rat recombinant enzyme. Assays for cathepsins S Et V were also carried out with human recombinant enzyme. Assays for human cathepsins B. H. and L were carried out with enzyme, purchased from Athens Research and Technology, Inc., prepared from human liver tissue. Standard assay conditions for the determination of kinetic constants used a fluorogenic peptide substrate, typically (5S,8S)-13-amino-5-benzyl-13-imino-3-methylene-N-(4methyl-2-oxo-2H-chromen-7-yl)-6-oxo-1-phenyl-2-oxa-4,7,12-triazatridecane-8-carboxamide (Cbz-Phe-Arg-AMC), and were determined in 100 mM sodium acetate at pH 5.5 containing 10 mM dithiothreitol and 120 mM sodium chloride. A stock substrate solution of Cbz-Phe-Arg-AMC was prepared at a concentration of 50 mM in dimethyl sulfoxide. This substrate was diluted into the assay for a final substrate concentration of 10 μM in the rat cathepsin K, human cathepsin K, and human cathepsin B assays; a final substrate concentration of 5 μM in the human cathepsin L assay; and a final substrate concentration of 2 μM in the human cathepsin V assay.
A stock substrate solution of (2S)-2-amino-5-{[amino(imino)methyl]amino}-N-(2-naphthyl)pentanamide hydrochloride (L-Arg-β-naphthalamide.HCl) was prepared at a concentration of 10 mM in dimethyl sulfoxide. This substrate was diluted into the assay for a final substrate concentration of […] in the cathepsin H assay.
All assays contained 10% dimethyl sulfoxide. […] All assays were conducted at 30° C. Product fluorescence (excitation at 360 nm; emission at 440 nm, (except cathepsin H which used excitation at 340 nm; emission at 420 nm)) was monitored with a PerSeptive Biosystems Cytofluor II fluorescence plate reader. Product progress curves were generated over 2.3 h monitoring the formation of 7-amino-4-methylcoumarin product (or β-naphthalamide for cathepsin H).
Potential inhibitors were evaluated using the progress curve method. Assays were carried out in the presence of variable concentrations of test compound. Reactions were initiated by addition of buffered solutions of inhibitor and substrate to enzyme. Data analysis was conducted according to one of two procedures depending on the appearance of the progress curves in the presence of inhibitors. For those compounds whose progress curves were linear, the enzymatic activity (RATE) was plotted against the concentration of test compound, including inhibitor concentration of zero ([I]=0), and the IC50 determined from a fit of equation 1 to the data, RATE=Vmax/(1+([I]/IC50)) (1) where Vmax is the best fit estimate of the maximal enzymatic activity. Ki values were calculated from IC50 values using equation 2 assuming a competitive model. [formula]

| Compound | pKi (human cathepsin K; Table 1) | pKi (human cathepsin K; Table 2) | pKi (human cathepsin H) |
| --- | --- | --- | --- |
| CCCC[C@H](NC(=O)O[C@H](Cc1nnc(-c2ccc(F)cc2)o1)C(C)(C)C)C(=O)C(=O)Nc1ccnn1C (stereo in doubt) [Example 22, (1R)-1-{[5-(4-fluorophenyl)-1,3,4-oxadiazol-2-yl]methyl}-2,2-dimethylpropyl(1S)-1-[[(1-methyl-1H-pyrazol-5-yl)amino](oxo)acetyl]pentyl carbamate] | 7.00 to 9.00 | 7.00 to 9.00 |  |
| CCCC[C@H](NC(=O)O[C@H](Cn1ccc(-c2ccc(C(F)(F)F)cc2)n1)C(C)(C)C)C(=O)C(=O)Nc1ccn[nH]1 [Example 1] | 9.00 to 11.00 | 9.00 to 11.00 | 5.00 to 7.00 |
| CCCC[C@H](NC(=O)O[C@H](Cn1cnc(-c2ccc(C(F)(F)F)cc2)c1)C(C)(C)C)C(=O)C(=O)Nc1ccn[nH]1 [Example 7, (1S)-2,2-dimethyl-1-({4-[4-(trifluoromethyl)phenyl]-1H-imidazol-1-yl}methyl)propyl(1S)-1-[oxo(1H-pyrazol-5-ylamino)acetyl]pentylcarbamate] | 9.00 to 11.00 | 9.00 to 11.00 | 5.00 to 7.00 |
| CCCC[C@H](NC(=O)O[C@H](Cn1cnc(-c2ccc(C(F)(F)F)cc2)c1)C(C)(C)C)C(=O)C(=O)Nc1ccnn1C1CCC1 [Example 35, (1S)-2,2-dimethyl-1-({4-[4-(trifluoromethyl)phenyl]-1H-imidazol-1-yl}methyl)propyl(1S)-1-[[(1-cyclobutyl-1H-pyrazol-5-yl)amino](oxo)acetyl]pentylcarbamate] | 7.00 to 9.00 | 7.00 to 9.00 | 5.00 to 7.00 |
| CCCC[C@H](NC(=O)O[C@H](Cn1cnc2cc(Cl)c(Cl)cc21)C(C)(C)C)C(=O)C(=O)Nc1ccn[nH]1 [Example 37, (1S)-1-[(5,6-dichloro-1H-benzimidazol-1-yl)methyl]-2,2-dimethylpropyl(1S)-1-[oxo(1H-pyrazol-5-ylamino)acetyl]pentylcarbamate] | 9.00 to 11.00 | 9.00 to 11.00 | 5.00 to 7.00 |
| CCCC[C@H](NC(=O)O[C@H](c1nnc(-c2ccc(C(F)(F)F)cc2)o1)C(C)(C)C)C(=O)C(=O)Nc1ccn[nH]1 [Example 38, (1S)-2,2-dimethyl-1-{5-[4-(trifluoromethyl)phenyl]-1,3,4-oxadiazol-2-yl}propyl(1S)-1-[oxo(1H-pyrazol-5-ylamino)acetyl]pentylcarbamate] | 9.00 to 11.00 | 9.00 to 11.00 | 5.00 to 7.00 |
| CCCC[C@H](NC(=O)O[C@H](c1nnc(-c2ccc(C(F)(F)F)cc2)o1)C(C)(C)C)C(=O)C(=O)NN1CCOC1=O [Example 39, (1S)-2,2-dimethyl-1-{5-[4-(trifluoromethyl)phenyl]-1,3,4-oxadiazol-2-yl}propyl(1S)-1-{oxo[(2-oxo-1,3-oxazolidin-3-yl)amino]acetyl}pentylcarbamate] | 9.00 to 11.00 | 9.00 to 11.00 | 5.00 to 7.00 |
